Test results published in the METLIN SMRT retention time set (Domingo-Almenara et al. 2019).

Assay: gradient 5% acetonitrile 3 min, to 50% in 2 min, to 85% in 15 min, held 3 min, 100 µL/min
Settings: column: Zorbax Extend-C18 2.1 x 50 mm; eluents: water / acetonitrile, 0.1% formic acid
Procedure, shortened: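 A Zorbax Extend-C18 column (2.1 × 50 mm, 1.8 μm) run at 100 μL/min with water and acetonitrile, both containing 0.1% formic acid, separated mixtures of ~100 pure standards. The HPLC was coupled to a quadrupole time-of-flight mass spectrometer operated in positive and negative ionization mode, with dead and dwell volumes of 40 μL and 900 μL. Each retention time was taken from a computationally picked adduct peak that was then manually inspected.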

| Compound | RP-LC retention time [s] |
| --- | --- |
| O=C1NC2CCCCC2NC1CC(=O)N1CCN(C(c2ccccc2)c2ccccc2)CC1 (configuration not stated) | 586 |
| O=C1CN=C(c2ccc[nH]2)c2cc(Cl)ccc2N1 | 650 |
| Cc1ccc(NS(=O)(=O)c2ccc3c(c2)CCCC(=O)N3)cc1F | 763 |
| CCc1ccc2nc(Nc3ncc4c(n3)CC(c3ccc(OC)cc3)CC4=O)nc(C)c2c1 (configuration not stated) | 820 |
| COc1ccc(NC(=O)N(Cc2nnc3n2CCCCC3)c2ccc(OC)cc2)cc1 | 631 |
| CCc1nnc(NC(=O)CN2C(=O)C3CCCCN3c3ccc(C(=O)N(C)C)cc32)s1 (configuration not stated) | 700 |
| CCCc1noc(CN2N=C(C(=O)N3CCC(C)CC3)S(=O)(=O)c3ccccc32)n1 | 954 |
| C=CCSC(CC)(CC)C(N)=O | 805 |
| CC1(C(=O)NCc2ccc(F)cc2)CCCN(C(=O)NC2CCCCC2)C1 (configuration not stated) | 895 |
| O=C(CN1C(=O)NC2(CCCCC2)C1=O)Nc1ccc(Br)cc1F | 826 |
| CC1CCc2nn(CC(=O)Nc3ccc(F)cc3F)cc2C1 (configuration not stated) | 875 |
| CCOc1ccc(-c2noc(CN3C(=O)COc4ccc(Cl)cc43)n2)cc1OC | 1050 |
| Cc1ccsc1CN1CCc2[nH]nc(C(=O)N(C)C)c2C1 | 559 |
| CC(C)Oc1ccc(-c2noc(Cn3ncn4nc(-c5ccc(F)cc5)cc4c3=O)n2)cc1 | 1210 |
| COc1ccc(C2(C(=O)N3C[C@@H](CO)[C@H](c4nc(C)no4)C3)CC2)cc1 | 665 |
| CC(C)(C)NS(=O)(=O)c1cncc(-c2cc(F)c3nc(N)nn3c2)c1 | 750 |
| Cc1cnn(CC(=O)N2CCc3nn(C)c(=O)n3CC2)c1 | 577 |
| O=C1NC2=C(C(=O)N(CCC3=CCCCC3)C2)C(c2ccccc2F)N1 (configuration not stated) | 684 |
| Cc1ccc(NS(=O)(=O)c2ccc(-c3c(C)noc3C)cc2)cc1C | 996 |

| Compound | RP-LC retention time [s] |
| --- | --- |
| COc1cc(C(=O)N2CCN(c3c(C)n(C)c(=O)n(C)c3=O)CC2)cc(OC)c1OC | 673 |
| NC(=O)C1CCN(C(=O)c2ccc(CN3C(=O)CCn4nc(-c5ccc(Cl)cc5)cc43)cc2)CC1 | 713 |
| CCC1CN(C(=O)N2CCC(C(=O)NCCCN3CCOCC3)CC2)c2ccccc2O1 (configuration not stated) | 632 |
| CCN(Cc1ccc(C)cc1)Cc1cc(=O)n2ccc(C)cc2n1 | 628 |
| CCCC(=O)c1cn(CC(=O)NCc2ccc3c(c2)OCCCO3)c2ccccc12 | 876 |
| CC(C)CC1OC(=O)C2=CCCCC21 (configuration not stated) | 1050 |
| CC1(C)CC(=O)C2=C(C1)Nc1ccccc1N(CC(=O)Nc1ccccc1)C2c1ccc(F)cc1 (configuration not stated) | 938 |
| COc1cccc(-c2nc(C3CC(=O)N(c4ccc(F)c(Cl)c4)C3)no2)c1 (configuration not stated) | 1100 |
| Cc1cccc(S(=O)(=O)N2CCCN(c3ccc(=O)n(-c4ccccc4)n3)CC2)c1 | 866 |
| CCCN(CCC)c1ncc(NC(=O)c2ccc(Br)cc2)cc1C(=O)O | 766 |
| O=C(NC1CC1)C1CCN(Cc2cc3ccccc3n2Cc2cccc(Cl)c2)CC1 | 730 |
| Cc1cccc(C)c1Nc1c(-c2ccc(N3CCOCC3)cc2)nc2cnccn12 | 755 |
| O=S(=O)(Cc1ccccc1)N1CCc2nc(-c3ccc(Cl)cc3)ncc2C1 | 1150 |
| Cc1cnc(C(=O)NC2C[C@H]3CC[C@@H](C2)N3C(=O)C2CCCCCC2)cn1 (some centres not stated) | 733 |
| COc1ccc(N2CCN(c3cc(SCC(=O)NCC4CCCO4)ncn3)CC2)cc1 (configuration not stated) | 713 |
| COc1cccc(OCC(O)CN2CCN(c3ccc(F)cc3)CC2)c1 (configuration not stated) | 687 |
| O=C(NCc1ccc(F)cc1)C1CCN(S(=O)(=O)c2cc(C(=O)N3CCOCC3)cs2)CC1 | 739 |
| O=C(Nc1ccc2c(c1)OCCO2)c1cc(-c2ccccn2)n[nH]1 | 648 |

The next lines start with the values.

| RP-LC retention time [s] | Compound |
| --- | --- |
| 580 | CC(=O)N1CCC2(CC1)OC(=O)C(C)=C2C(=O)NCCCN(Cc1ccccc1)C(C)C |
| 809 | COCc1nc(NCc2cccnc2)ncc1C(=O)O |
| 588 | Cc1nnc(NC(=O)CCn2cnc3ccccc3c2=O)s1 |
| 1160 | COc1ccc(NC(=O)Cc2c(C)nn(-c3nc(-c4ccc(F)cc4)cs3)c2C)c(OC)c1 |
| 760 | O=C(CSc1nc(-c2ccccc2)c(-c2ccccc2)o1)NCCCO |
| 678 | CNC(=O)C1CCCN(c2nc3ncn(CC(=O)Nc4cc(C)ccc4OC)c(=O)c3s2)C1 (configuration not stated) |
| 742 | CCCCN(C)C(=O)Cn1c(C2CC(=O)N(Cc3ccccc3)C2)nc2ccccc21 (configuration not stated) |
| 801 | CNC(=O)C1CCN(c2nc3ccc(-c4cccc(OC)c4)nc3s2)CC1 |
| 1170 | COc1cccc(-n2c(=O)c(C(=O)NCc3cc(F)cc(F)c3)c(O)c3cccnc32)c1 |
| 622 | COCCn1nc(N2CCCC(NS(=O)(=O)c3c(C)nn(C)c3C)C2)ccc1=O (configuration not stated) |
| 1050 | Cc1cc(C)cc(C(=O)Nc2ccc(N3CCN(c4ccccc4)C3=O)nc2)c1 |
| 1020 | CCN(Cc1ccccc1)C(=O)Cn1cc2c(n1)CCCCCC2 |
| 729 | COc1ccccc1-n1ncc2c(C(C)C)nnc(SCC(=O)NCc3ccco3)c21 |
| 892 | COc1ccc(-c2nc(-c3nnn(-c4ccccc4)c3C)no2)cc1OC |
| 653 | CCn1c(=O)c2cc(C(N)=O)nn2c2ccccc21 |
| 826 | O=C(NC1CCCC1)c1nc2ccccn2c1-c1ccc(F)cc1 |
| 572 | CNC(=O)c1ccc(Cn2cnc3cccnc32)cc1 |
| 1050 | CCOc1ccccc1C(=O)NC1(c2nc(-c3cccnc3)no2)CCCCC1 |
| 635 | CCc1cccc(C)c1N(C(=O)CSCc1nc2ccccc2[nH]1)C(C)COC (configuration not stated) |
| 934 | COc1ccc(-c2noc(-c3c(SC)nn(CC(=O)Nc4ccccc4)c3N)n2)cc1 |
| 970 | Cc1cc(C)cc(OCc2nc(CCN(C)C(=O)Nc3ccccc3)no2)c1 |
| 932 | CCCn1c(=O)sc2cc(S(=O)(=O)N3CCC(C(=O)NCc4ccccc4)CC3)ccc21 |
| 706 | COCCN1C(=O)CCc2cc(NS(=O)(=O)c3cccs3)ccc21 |
| 983 | CN(C)S(=O)(=O)c1ccc(Cl)c(-c2nnc(-c3ccccc3)o2)c1 |
| 780 | Cc1nc2c(ccc3nc(NC(=O)CN4C(=O)c5ccccc5C4=O)sc32)s1 |
| 637 | CNC(=O)c1sc2nc(-c3ccccc3)c(NCCOC)n2c1C |
| 657 | CCOC(=O)c1ccc(NC(=O)C2=C(C)C(=O)OC23CCN(C(C)C)CC3)cc1 |
| 1080 | CC(C)c1cc(C(=O)Nc2ccccc2)nc2ccnn12 |
| 942 | CCc1ccc(S(=O)(=O)Nc2cccc(-c3nc4cccnc4s3)c2C)s1 |
| 607 | CCCNC(=O)CCNc1c(-c2ccccc2C)nc2cnccn12 |
